Measured values as given in patent publication US20250241848A1 (priority 2011, published 2025).

Tested on: axillary sweat production
Conditions: human, in vivo

Molecule | greater effectiveness in reducing sweat production than placebo | greater reduction in sweat production than the subjects in the control group | reduction in sweat production (on average) | subjects with at least a 30% reduction in sweat production compared to Baseline visit
Polysorbate 80 | 280% | 300% | 159 mg | 80%
CCCOC(=O)c1ccc(O)cc1 [Propylparaben] | 245% | 337% | 177 mg | 70%
CCCCCCCCCCCCCC(=O)OC(C)C [Isopropyl Myristate] | 191% | 195% | 103 mg | 55%
